Laboratory results reported in patent EP1175901A1, “PEROXISOME ACTIVATOR-RESPONSIVE RECEPTOR AGONISTS” (Kaneka Corporation, priority 1999, dated 2000).
Marks after values point to notes of the source that are not given here.

What was measured:
C57BL/6J mice [1] = test: Visceral fat reduction: tissue weights in mice made obese on high-fat, high-sugar feed (Example 4); type: in vivo; settings: obese female C57BL/6J mice, 3 weeks test feed, 7wt% test oil (CLA group: 0.5wt% CLA + 6.5wt% soybean oil)
Description: The visceral fat reduction effects or visceral fat accumulation suppression effects of the PPAR agonist and oil/fat composition of the present invention are evaluated by administering the candidate compound to a laboratory animal for a specific time period (e.g. 4 weeks), and then measuring the amount of visceral fat in the adipose tissue around the testes, the adipose tissue around the kidneys and the like.
10-week old female C57BL/6J mice (from Clea Japan) were made obese by keeping for 3 weeks on a high-fat, high-sugar feed (made by Oriental Yeast) having the composition shown in Table 4. The mice were then divided into groups of 8, and were kept for a further 3 weeks on a test feed consisting of a fat-free growth-period-use standard mixed feed (AIN-93G, made by Oriental Yeast) with 2wt% soybean oil as an essential fatty acid source and either 7wt% of a test oil or 7wt% of a control oil added. After 3 weeks, the mice were fed for the last time and then not fed for 16 hours, after which the whole blood was collected from the mice using a heparinized syringe under ether anesthesia, and then the mice were dissected, with the adipose tissue around the kidneys, the adipose tissue around the ovaries, the liver, the kidneys and the spleen being extracted, and the weights thereof being measured. Each organ weight thus obtained was divided by the body weight to obtain the ratio of the organ weight to the body weight. The adipose tissue around the kidneys and the adipose tissue around the ovaries was evaluated as visceral adipose tissue. The collected blood was centrifuged for 15 minutes at 3000 rpm while cooling to obtain the plasma, and then the total cholesterol concentration was measured using Cholesterol C Test Wako (made by Wako Pure Chemical Industries), the neutral lipid concentration using Triglyceride G Test Wako (made by Wako Pure Chemical Industries), and the free fatty acid concentration using NEFA C Test Wako (made by Wako Pure Chemical Industries). The groups set up were a test group for which pomegranate seed oil prepared as in Example 1 was added to the feed (pomegranate seed oil group), a control group for which soybean oil was added to the feed (soybean oil group), and a comparative group for which high-DHA-containing fish oil (DHA content 20wt%, made by Harima Chemicals), which is known to have obesity ameliorating effects, was added to the feed (fish oil group). Also set up was a group for which 6.5wt% of soybean oil and 0.5wt% of CLA (made by Kenko Tsusho, 70% purity) was added to the feed (CLA group). […] Moreover, also set up was a group that were fed a standard feed containing 9wt% of soybean oil throughout the test period right from the start (standard feed group, n=3). During the test period, the mice were allowed to drink water freely, but feeding was limited such that the intake was the same as for the soybean oil group.

PPARγ = molecular target: T1, PPARγ (Homo sapiens, UniProt P37231); test: PPARγ agonist activity, GAL4-PPARγ chimera / 4×UASg-luc luciferase reporter assay in CV-1 cells; settings: for Relative activity (n=3): untreated control = 100
T1 sequence (P37231 204-505): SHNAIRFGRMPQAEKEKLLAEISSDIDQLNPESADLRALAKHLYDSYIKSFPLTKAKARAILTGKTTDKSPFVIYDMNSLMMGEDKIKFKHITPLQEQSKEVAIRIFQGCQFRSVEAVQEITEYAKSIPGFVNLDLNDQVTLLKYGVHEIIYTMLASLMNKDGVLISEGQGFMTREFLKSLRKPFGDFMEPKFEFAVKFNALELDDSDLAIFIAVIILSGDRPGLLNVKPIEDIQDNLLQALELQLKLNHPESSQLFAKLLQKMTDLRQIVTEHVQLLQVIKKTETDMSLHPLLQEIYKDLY
Description: Moreover, untreated control groups were established by exchanging with a culture medium prepared by diluting only DMSO with DMEM containing 10% activated-charcoal-treated bovine fetal serum. […] One day after the culture medium exchange, the culture medium was removed, the cells were washed with phosphate buffered saline (PBS), a cell solution was prepared using PicaGene cell solution Luc (made by Toyo Ink), 20µl of the cell solution was reacted with 100µl of a PicaGene luminescent substrate (made by Toyo Ink), and the luciferase activity was measured using a luminometer (Berthold Lumat LB9501) with the measurement time set to 10 seconds.
Letting the ratio of the measurement group (the group for which pM-PPAR and 4×UASg-luc were transfected) to the control group (the group for which pM and 4×UASg-luc were transfected) in the case of the untreated control groups be (a), and the ratio of the measurement group to the control group in the case of the ligand-reagent-added groups be (b), the PPARγ agonist activity caused by the ligand reagent was evaluated using the ratio (b)/(a). To avoid errors due to differences in the transfection efficiency between experiments, TZD (1µm) was put in as positive control groups and the values between the experiments were corrected.

mice = test: Preliminary tests of CLA added to feed (liver enlargement, food intake); type: in vivo; settings: 1wt% or more of CLA added to the feed
C57BL/6J mice [2] = test: Lipid metabolism amelioration: plasma lipid concentrations in obese mice (Example 4); type: in vivo; settings: after 16 hours without feed, 3 weeks test feed, 7wt% test oil (CLA 0.5wt%), soybean oil group = 100
From the text: 10-week old female C57BL/6J mice (from Clea Japan) were made obese by keeping for 3 weeks on a high-fat, high-sugar feed (made by Oriental Yeast) having the composition shown in Table 4. The mice were then divided into groups of 8, and were kept for a further 3 weeks on a test feed consisting of a fat-free growth-period-use standard mixed feed (AIN-93G, made by Oriental Yeast) with 2wt% soybean oil as an essential fatty acid source and either 7wt% of a test oil or 7wt% of a control oil added. After 3 weeks, the mice were fed for the last time and then not fed for 16 hours, after which the whole blood was collected from the mice using a heparinized syringe under ether anesthesia, and then the mice were dissected, with the adipose tissue around the kidneys, the adipose tissue around the ovaries, the liver, the kidneys and the spleen being extracted, and the weights thereof being measured. Each organ weight thus obtained was divided by the body weight to obtain the ratio of the organ weight to the body weight. The adipose tissue around the kidneys and the adipose tissue around the ovaries was evaluated as visceral adipose tissue. The collected blood was centrifuged for 15 minutes at 3000 rpm while cooling to obtain the plasma, and then the total cholesterol concentration was measured using Cholesterol C Test Wako (made by Wako Pure Chemical Industries), the neutral lipid concentration using Triglyceride G Test Wako (made by Wako Pure Chemical Industries), and the free fatty acid concentration using NEFA C Test Wako (made by Wako Pure Chemical Industries). The groups set up were a test group for which pomegranate seed oil prepared as in Example 1 was added to the feed (pomegranate seed oil group), a control group for which soybean oil was added to the feed (soybean oil group), and a comparative group for which high-DHA-containing fish oil (DHA content 20wt%, made by Harima Chemicals), which is known to have obesity ameliorating effects, was added to the feed (fish oil group). […]

- Relative activity (mean, n=3) (PPARγ; 20µM final fatty acid concentration, untreated control group = 100): 125
- Relative activity (n=3) (PPARγ; concentration 3 (µm [sic]), 3 µM): 129
- Relative activity (n=3) (PPARγ; concentration 9 (µm [sic]), 9 µM): 109
- Relative activity (n=3) (PPARγ; concentration 30 (µm [sic]), 30 µM): 110
- Relative activity (n=3) (PPARγ; concentration 90 (µm [sic]), 90 µM): 159
- Relative activity (n=3) (PPARγ; concentration 300 (µm [sic]), 300 µM): 323
- food intake (mice): drop in the mice's food intake
- liver enlargement (mice): 1.4 times relative to a control
Substance: conjugated linoleic acid [CLA]
- Ratio of tissue weight to body weight (mean, n=8): Fat around kidneys (C57BL/6J mice [1]; soybean oil group 0.304): 0.240
- Ratio of tissue weight to body weight (mean, n=8): Spleen (C57BL/6J mice [1]; soybean oil group 0.391): 0.450
- Ratio of tissue weight to body weight (mean, n=8): Fat around ovaries (C57BL/6J mice [1]; soybean oil group 0.839): 0.650
- Ratio of tissue weight to body weight (mean, n=8): Kidneys (C57BL/6J mice [1]; soybean oil group 1.128): 1.280
- Ratio of tissue weight to body weight (mean, n=8): Visceral fat (C57BL/6J mice [1]; soybean oil group 1.144): 0.890
- Ratio of tissue weight to body weight (mean, n=8): Liver (C57BL/6J mice [1]; soybean oil group 4.454): 4.920
- Relative blood lipid concentration (mean, n=8): Free fatty acids (C57BL/6J mice [2]): 71* % of soybean oil group
- Relative blood lipid concentration (mean, n=8): Neutral lipids (C57BL/6J mice [2]): 100 mg/dL
- Relative blood lipid concentration (mean, n=8): Total cholesterol (C57BL/6J mice [2]): 89 mg/dL
